Measurements taken from the CheMixHub viscosity set.

Assay: xn = mol fraction of the nth substance listed

CCCC(=O)O + CCC(C)=O
viscosity [mPa·s], 101 kPa
Conditions	x2 = 0.1024	x2 = 0.2043	x2 = 0.3057	x2 = 0.4065	x2 = 0.5067	x2 = 0.6064	x2 = 0.7056	x2 = 0.8043	x2 = 0.9024
293.15 K	1.383	1.236	1.1	0.9737	0.8582	0.7526	0.6569	0.571	0.4948
303.15 K	1.2	1.078	0.9646	0.8589	0.761	0.6716	0.5897	0.515	0.4485
313.15 K	1.021	0.9263	0.8368	0.7525	0.6733	0.5989	0.5293	0.4645	0.4044

COCCO + CCC(C)=O
viscosity [mPa·s]
Conditions	298.15 K	308.15 K	318.15 K
101 kPa, x2 = 0.1049	1.321	–	–
101 kPa, x2 = 0.2087	1.113	–	–
101 kPa, x2 = 0.3115	0.937	–	–
101 kPa, x2 = 0.413	0.78	–	–
101 kPa, x2 = 0.5135	0.64	–	–
101 kPa, x2 = 0.6128	0.525	–	–
101 kPa, x2 = 0.7112	0.464	–	–
101 kPa, x2 = 0.8085	0.43	–	–
101 kPa, x2 = 0.9047	0.41	–	–
101.33 kPa, x1 = 0.1014	0.423	0.378	0.339
101.33 kPa, x1 = 0.2118	0.474	0.419	0.373
101.33 kPa, x1 = 0.3001	0.53	0.469	0.418
101.33 kPa, x1 = 0.3864	0.591	0.521	0.463
101.33 kPa, x1 = 0.4984	0.695	0.607	0.534
101.33 kPa, x1 = 0.601	0.805	0.696	0.607
101.33 kPa, x1 = 0.695	0.938	0.802	0.692
101.33 kPa, x1 = 0.8004	1.12	0.945	0.803
101.33 kPa, x1 = 0.9019	1.334	1.108	0.931

CCCCBr + CCC(C)O
viscosity [mPa·s], 101.33 kPa
Conditions	x2 = 0.11	x2 = 0.208	x2 = 0.3145	x2 = 0.3968	x2 = 0.4998	x2 = 0.6057	x2 = 0.7046	x2 = 0.786	x2 = 0.8988
298.15 K	0.613	0.642	0.689	0.742	0.833	0.975	1.176	1.428	2.018
308.15 K	0.538	0.552	0.581	0.614	0.675	0.77	0.905	1.075	1.461
318.15 K	0.483	0.492	0.512	0.537	0.579	0.653	0.741	0.855	1.111

CCCCNCCCC + CCC(C)O
viscosity [mPa·s]
Conditions	298.15 K	303.15 K	308.15 K	318.15 K
101 kPa, x1 = 0.008423	–	2.446	–	–
101 kPa, x1 = 0.01776	–	2.42	–	–
101 kPa, x1 = 0.02719	–	2.398	–	–
101 kPa, x1 = 0.03174	–	2.389	–	–
101 kPa, x1 = 0.04204	–	2.369	–	–
101 kPa, x1 = 0.0502	–	2.353	–	–
101 kPa, x1 = 0.06011	–	2.332	–	–
101 kPa, x1 = 0.06621	–	2.32	–	–
101 kPa, x1 = 0.07608	–	2.299	–	–
101.33 kPa, x1 = 0.0594	2.662	–	1.888	1.409
101.33 kPa, x1 = 0.0839	2.525	–	1.79	1.328
101.33 kPa, x1 = 0.1282	2.305	–	1.657	1.24
101.33 kPa, x1 = 0.1858	2.06	–	1.516	1.147
101.33 kPa, x1 = 0.2618	1.787	–	1.344	1.054
101.33 kPa, x1 = 0.3612	1.511	–	1.181	0.948
101.33 kPa, x1 = 0.4306	1.373	–	1.089	0.886
101.33 kPa, x1 = 0.5042	1.246	–	1.012	0.827
101.33 kPa, x1 = 0.5658	1.16	–	0.952	0.784
101.33 kPa, x1 = 0.6215	1.095	–	0.898	0.753
101.33 kPa, x1 = 0.6856	1.031	–	0.855	0.712
101.33 kPa, x1 = 0.7458	0.986	–	0.818	0.696
101.33 kPa, x1 = 0.794	0.959	–	0.803	0.684
101.33 kPa, x1 = 0.8584	0.905	–	0.76	0.681
101.33 kPa, x1 = 0.9138	0.859	–	0.733	0.661

COCCO + CCC(C)O
viscosity [mPa·s]
Conditions	298.15 K	303.15 K	313.15 K
100 kPa, x1 = 0.1007	2.54	–	1.61
100 kPa, x1 = 0.202	2.2	–	1.46
100 kPa, x1 = 0.3022	1.98	–	1.36
100 kPa, x1 = 0.4018	1.83	–	1.29
100 kPa, x1 = 0.5022	1.73	–	1.24
100 kPa, x1 = 0.6017	1.66	–	1.21
100 kPa, x1 = 0.701	1.61	–	1.19
100 kPa, x1 = 0.8006	1.58	–	1.18
100 kPa, x1 = 0.9006	1.56	–	1.18
101.3 kPa, x1 = 0.1228	–	2.584	–
101.3 kPa, x1 = 0.209	–	2.261	–
101.3 kPa, x1 = 0.3377	–	1.898	–
101.3 kPa, x1 = 0.428	–	1.714	–
101.3 kPa, x1 = 0.5977	–	1.488	–
101.3 kPa, x1 = 0.6442	–	1.45	–
101.3 kPa, x1 = 0.7067	–	1.411	–
101.3 kPa, x1 = 0.8447	–	1.368	–
101.3 kPa, x1 = 0.9188	–	1.308	–

CCCC(C)O (stereo not given) + CCCCCC
viscosity [mPa·s], 101.33 kPa
Conditions	x1 = 0.1	x1 = 0.2	x1 = 0.3	x1 = 0.4	x1 = 0.5	x1 = 0.6	x1 = 0.7	x1 = 0.8	x1 = 0.9
303 K	0.28	0.31	0.382	0.537	0.682	0.878	1.228	1.588	1.965
313 K	0.249	0.277	0.36	0.44	0.544	0.802	0.967	1.21	1.484
323 K	0.228	0.254	0.31	0.385	0.472	0.634	0.805	0.981	1.138

CCCC(C)O (stereo not given) + CCCCCCC
101 kPa
Conditions	viscosity [mPa·s]
293.8 K, x1 = 0.5	0.771
295.1 K, x1 = 0.051	0.477

CC(CC(C)(C)C)CC(C)(C)CC(C)(C)C (stereo not given) + CCCCCCCCCCCC
Conditions	viscosity [mPa·s]
323.15 K, 100 kPa, x1 = 0.279	1.09

CC(CC(C)(C)C)CC(C)(C)CC(C)(C)C (stereo not given) + CCCCCCCCCCCCC
viscosity [mPa·s], 100 kPa
Conditions	x2 = 0.125	x2 = 0.25	x2 = 0.375	x2 = 0.5	x2 = 0.625	x2 = 0.75	x2 = 0.875
293.15 K	3.28	2.98	2.69	2.49	2.29	2.14	1.98
303.15 K	2.65	2.39	2.18	2.07	1.89	1.76	1.64
313.15 K	2.15	1.96	1.79	1.71	1.57	1.47	1.39
323.15 K	1.79	1.63	1.51	1.43	1.33	1.25	1.18

CC(CC(C)(C)C)CC(C)(C)CC(C)(C)C (stereo not given) + CCCCCCCCCCCCCCCC
298.15 K, 101.33 kPa
Conditions	viscosity [mPa·s]
x2 = 0.0974	3.252
x2 = 0.2011	3.181
x2 = 0.3015	3.128
x2 = 0.3995	3.09
x2 = 0.4995	3.064
x2 = 0.6002	3.05
x2 = 0.7004	3.045
x2 = 0.8	3.049

CCCCNCCCC + CCCCCCCCCCO
viscosity [mPa·s], 101.33 kPa
Conditions	x1 = 0.0981	x1 = 0.1964	x1 = 0.286	x1 = 0.3857	x1 = 0.4851	x1 = 0.5846	x1 = 0.6877	x1 = 0.7856	x1 = 0.8866
303.15 K	7.771	6.615	5.545	4.423	3.439	2.607	1.944	1.445	1.073
313.15 K	5.959	4.985	4.15	3.305	2.611	2.021	1.545	1.199	0.9135
